Data as given in patent US20220274927A1, “MEMBRANE-ACTIVE ANTI-BACTERIAL COMPOUNDS AND USES THEREOF” (Trustees of Dartmouth College, priority 2019, published 2022).
≈ marks a conversion by molar mass, not a printed value. Entries after “also recorded” stand apart in the source; their conditions may differ. Like-named read-outs stand apart in the source and are kept apart here.

Assays:
[1] = test system: K. pneumonia 7117; experiment: Antimicrobial susceptibility MIC, K. pneumonia 7117; format: cell-based; details: Klebsiella pneumoniae; K. pneumonia strain 7117
Excerpt: (§1) The first set of compounds evaluated were analogs at the C-7 and C-8 positions of the initial quinolone hit DNAC-2 since the other HTS hits identified (data not shown) were substituted at these positions (Table 1). Applicants first explored modification at the C-7 position with a small series of electron-donating and withdrawing substituents. […] However, analogs containing electron donating groups at C-7 including ethyl 7, benzyloxy 8, methoxy 9 and methylthio 10 are weakly active displaying MICs of 320-640 μg/mL indicating electron-donating substituents at C-7 are poorly tolerated. […] The C-8 position was evaluated with trifluoromethyl 4 and trifluoromethoxy 5 containing the optimal C-7 substituents. Both 4 and 5 are equipotent to the corresponding C-7 analogs 2 and 3 indicating some flexibility of the quinolone scaffold.
(§2) The compounds maintain activity against Staphylococcus epidermidis; however, 31, 111 and 123 all lose considerable potency against Enterococcus faecalis and Enterococcus faecium, which contribute heavily, along with MRSA, to healthcare-associated infections.

[2] = test system: E. coli DHMC-1; experiment: Antimicrobial susceptibility MIC, E. coli DHMC-1; format: cell-based; details: Escherichia coli, DHMC1; E. coli strain DHMC-1
Excerpt: as §1, §2

[3] = test system: C. albicans; experiment: Antimicrobial susceptibility, C. albicans; format: cell-based, Candida albicans; details: highest concentration tested
Excerpt: as §2

[4] = test system: methicillin-resistant S. aureus (FPR3757); experiment: MIC against clinical MRSA strain FPR3757 in Mueller-Hinton broth (CLSI); format: cell-based, Staphylococcus aureus
Excerpt: as §1

[5] = test system: E. faecalis SMC374; experiment: Antimicrobial susceptibility MIC, E. faecalis SMC374; format: cell-based; details: Enterococcus faecalis
Excerpt: as §1, §2

[6] = test system: S. aureus (MRSA); experiment: In vitro time-kill assay; format: cell-based; details: 1× MIC, initial inoculum 10^5 CFU, plating over six hours
Procedure: FIG. 4 illustrates in vitro time-kill analysis of methicillin resistant Staphylococcus aureus (MRSA). Bacterial killing was monitored by measuring the colony forming unit (CFU) for six hours when treated with compounds 22, 31, 117, and 123 at 1× the minimum inhibitory concentration (MIC) of each compound. The CFU at each time point was determined by plating and then compared to a dimethyl sulfoxide (DMSO) control.
While the MIC data confirmed that these compounds were at least bacteriostatic, Applicants wanted to test for bactericidal properties of both the aminoquinoline and aminoquinolone scaffolds. […] The kinetics of bacterial killing was assessed in vitro using time-kill assays by incubating compounds at 1× their MIC with an initial inoculum of 10^5 colony forming units (CFU) of S. aureus and removing aliquots at various time points to determine the residual CFU by plating.

[7] = test system: E. cloacae ND-21; experiment: Antimicrobial susceptibility MIC, E. cloacae ND-21; format: cell-based; details: Enterobacter cloacae, ND21; E. cloacae strain ND-21
Excerpt: as §1, §2

[8] = test system: E. faecium ATCC19579; experiment: Antimicrobial susceptibility MIC, E. faecium ATCC19579; format: cell-based; details: Enterococcus faecium
Excerpt: as §1, §2

[9] = test system: S. aureus NIH04008; experiment: Antimicrobial susceptibility MIC, S. aureus NIH04008; format: cell-based; details: Staphylococcus aureus, NIH04008
Excerpt: as §1, §2

[10] = test system: S. aureus MW2; experiment: Antimicrobial susceptibility MIC, S. aureus MW2; format: cell-based; details: Staphylococcus aureus, MW2
Excerpt: as §1, §2

[11] = test system: MRSA clinical strain S. aureus FPR3757; experiment: Minimum bactericidal concentration (MBC) against S. aureus FPR3757; format: cell-based
[12] = test system: S. aureus (strain USA300); experiment: Transmission electron microscopy of treated cells; format: cell-based; details: 1× MIC, after 10 minutes, vs DMSO
Procedure: FIGS. 6A, 6B and 6C illustrate transmission electron microscopy (TEM) imaging of MRSA USA300 treated with compounds 22 and 31.
Transmission electron microscopy (TEM) and fluorescence microscopy (FM) allowed Applicants to directly observe the effects of the novel 4-aminoquinolines […] 5-aminoquinolones on the cell morphology of staphylococci.
(§3) These cellular defects were not seen in any of the control cells treated with DMSO. Fluorescent microscopy was performed on a S. aureus (strain COL) strain after treatment with either DMSO, 31 or 123 for 30 minutes followed by staining with FM 4-64 (red membrane stain), bodipy-vancomycin (Van-FL, green stain), and Hoechst (blue DNA stain).

[13] = test system: clinical methicillin-resistant Staphylococcus aureus (MRSA) isolates; experiment: MIC against panel of MRSA / staphylococcal strains (text summaries); format: cell-based; details: six S. aureus strains of Table 9, read-out: MIC towards all six S. aureus strains
Excerpt: as §1, §2

[14] = test system: sheep erythrocytes; experiment: in vitro; format: cell-based; details: sheep, 32 μg/mL
Procedure: (§4) FIG. 8 illustrates percent hemolysis analysis of sheep erythrocytes. Concentration-dependent hemolysis was measured by monitoring the optical density (OD)540 of PBS-washed sheep erythrocytes. Complete hemolysis (100%) was confirmed by treatment of erythrocytes with Triton X-100. Data points represent the mean±SD of triplicate experiments.
(§5) The macromolecular synthesis assay, TEM, and FM experiments were all consistent with membrane disruption. […] The high membrane selectivity of the 5-aminoquinolin-4-ones in this assay is impressive and is in accordance with the observed therapeutic index (CC50/MIC).

[15] = test system: S. aureus (strain COL); experiment: Fluorescent microscopy of membrane, cell wall and DNA; format: cell-based; details: 1× MIC, 30 minutes, vs DMSO
Procedure: FIGS. 7A and 7B illustrate fluorescent microscopy (FM) analysis of the membrane, cell wall, and DNA in MRSA. FM of COL MRSA strain treated with compound 123 (FIG. 7B, bottom row) at 1×MIC and DMSO (FIG. 7A, top row) for 30 minutes followed by staining with FM-64 (far left column, 0.5 μg/mL), VanFL (second column, 1 μg/mL), and Hoechst (third column, 1 μg/mL) for 5 minutes and washed with 1× phosphate buffered saline (PBS) before imaging (fourth column, overlay).
as §3

[16] = test system: Staphylococcus simulans; experiment: Macromolecular synthesis assays (radiolabeled precursor incorporation); format: cell-based
Excerpt: FIG. 5 illustrates macromolecular synthesis assays (representative data with 123). Time-course for inhibition of incorporation of radiolabeled precursors [^3H]-L-isoleucine (protein), [^3H]-thymidine (DNA), [^3H]-uridine (RNA), and [^3H]-glucosamine (cell wall) in S. simulans by 123 at 0.5×, 1× and 5×MIC. Data are expressed as the percentage of inhibition relative to the DMSO only negative control. The positive control antibiotics denoted by closed circles were used at 10× MIC. Data represent the mean±standard deviation (SD) of triplicate experiments.
Classical macromolecular synthesis assays were performed to provide insight on the putative mechanism of action of the most promising quinoline 31 and quinolone 123 candidates. Disruption of bacterial membranes is not only rapid, but interferes with all major metabolic activities in the cell and is thus easily distinguished by macromolecular synthesis assays. […] The control antibiotics ciprofloxacin, rifampicin, vancomycin and tetracycline were included as inhibitors of DNA, RNA, cell wall, and protein synthesis, respectively. The cells were quenched at various time points with 10% trichloroacetic acid (TCA), filtered, washed and the amount of precursor incorporation was quantified by scintillation counting.

[17] = test system: S. aureus membranes (versus erythrocyte membranes); experiment: in vitro; format: cell-based, sheep; details: sheep
Procedure: as §4, §5

[18] = test system: erythrocyte membranes (versus S. aureus membranes); experiment: in vitro; format: cell-based, sheep; details: sheep; read-out: selectivity for S. aureus membranes over erythrocyte membranes
Procedure: as §4, §5

[19] = Staphylococcus aureus, MRSA, MRSA clinical strain FPR3757, Mueller-Hinton broth, CLSI guidelines, complete inhibition of observable growth, read-out: MIC

Q: FC(F)(F)c1ccc2c(Nc3ccc(Cl)c(Cl)c3)cc(C(F)(F)F)nc2c1 [Compound 22] was tested. Which MIC [1] did it give?
A: Its MIC is greater than 4 µg/mL.

Q: What about the MIC [2] of the same compound?
A: Its MIC is greater than 4 µg/mL.

Q: And the “MIC against C. albicans as multiple of MIC” value [3]?
A: The value was greater than 16× × MIC.

Q: What about the MIC ([4]; Staphylococcus aureus, MRSA) of the same compound?
A: Its MIC is 0.0625 µg/mL (≈ 0.147 µM).

Q: What about the MIC [4, 19] of the same compound?
A: Its MIC is 0.06 µg/mL (≈ 0.141 µM).

Q: What about the MIC ([5]; SMC374) of the same compound?
A: Its MIC is 0.125 µg/mL (≈ 0.294 µM).

Q: And the “time-kill: CFU reduction” value [6]?
A: The value was “reduced the CFU below the limit of detection at four to six hours”.

Q: What about the MIC [7] of the same compound?
A: Its MIC is greater than 4 µg/mL.

Q: And the MIC ([8]; ATCC19579)?
A: The MIC was 0.125 µg/mL (≈ 0.294 µM).

Q: And the MIC [9]?
A: The MIC was 0.125 µg/mL (≈ 0.294 µM).

Q: And the MIC [10]?
A: Its MIC is 0.125 µg/mL (≈ 0.294 µM).

Q: What about the “MBC relative to MIC” value [11] of the same compound?
A: The value was “MBCs equal to their MIC values”.

Q: Which MIC [1] does the source give for FC(F)(F)c1ccc(Nc2cc(C(F)(F)F)nc3cc(C(F)(F)F)ccc23)nc1 [Compound 31] here?
A: The MIC was greater than 64 µg/mL.

Q: And the MIC [2]?
A: The MIC was greater than 64 µg/mL.

Q: And the “MIC against C. albicans as multiple of MIC” value [3]?
A: The value was greater than 16× × MIC.

Q: What about the “fold loss of potency (MIC) relative to the comparator” value ([4]; MRSA FPR3757 MIC ratio) of the same compound?
A: The value was 4 fold.

Q: And the MIC [4, 19]?
A: Its MIC is 0.25 µg/mL (≈ 0.588 µM).

Q: And the “cell morphology in TEM images” value [12]?
A: Its value is “cross-wall-septum formation with reduced splitting; also recorded: mesosome-like membrane inclusions”.

Q: And the MIC [13]?
A: The MIC was 0.125 to 0.25 µg/mL (≈ 0.294 to 0.588 µM).

Q: And the hemolysis [14]?
A: The hemolysis was “None of the compounds except 76, displayed any hemolysis”.

Q: What about the MIC ([5]; E. faecalis strain SMC374, read-out: MIC) of the same compound?
A: Its MIC is 2 µg/mL (≈ 4.7 µM).

Q: What about the “DNA and cell wall staining (Hoechst, Van-FL)” value [15] of the same compound?
A: The value was “little or no change compared to the DMSO control”.

Q: And the “membrane staining (FM 4-64)” value [15]?
A: Its value is “membrane defects”.

Q: And the “time-kill: CFU reduction” value [6]?
A: Its value is “reduced the CFU below the limit of detection at four to six hours”.

Q: And the MIC [7]?
A: Its MIC is greater than 64 µg/mL.

Q: And the “inhibition of DNA, RNA, protein and cell-wall synthesis” value ([16]; 0.5×, 1× and 5× MIC)?
A: Its value is “concentration-dependent inhibition of DNA, RNA, protein and cell-wall synthesis”.

Q: And the “inhibition of macromolecular processes at 5× MIC” value ([16]; 5× the MIC, DNA, RNA, protein, cell wall precursor incorporation)?
A: Its value is “completely inhibited all macromolecular processes”.

Q: What about the MIC ([8]; E. faecium strain ATCC19579, read-out: MIC) of the same compound?
A: The MIC was 0.25 to 1 µg/mL (≈ 0.588 to 2.35 µM).

Q: What about the MIC [9] of the same compound?
A: The MIC was 0.125 µg/mL (≈ 0.294 µM).

Q: What about the MIC [10] of the same compound?
A: The MIC was 0.125 µg/mL (≈ 0.294 µM).

Q: What about the “MBC relative to MIC” value [11] of the same compound?
A: Its value is “MBCs equal to their MIC values”.

Q: Which MIC [4, 19] does the source give for O=c1cc(C(F)(F)F)[nH]c2cc(C(F)(F)F)cc(Nc3ccc(Cl)c(Cl)c3)c12 [Compound 108] here?
A: Its MIC is less than 0.06 µg/mL.

Q: And the selectivity ratio [17]?
A: Its selectivity ratio is greater than 500.

Q: Which results are given for O=c1cc(C(F)(F)F)[nH]c2cc(C(F)(F)F)cc(Nc3ccc(F)c(F)c3)c12 [Compound 109]?
A: MIC [4, 19]: < 0.06 µg/mL; selectivity ratio [17]: > 500

Q: What does the source list for O=c1cc(C(F)(F)F)[nH]c2cc(C(F)(F)F)cc(Nc3cccc(OC(F)(F)F)c3)c12 [Compound 110]?
A: MIC [4, 19]: 0.06 to 0.12 µg/mL (≈ 0.132 to 0.263 µM); selectivity ratio [18]: > 500

Q: What does the source list for O=c1cc(C(F)(F)F)[nH]c2cc(C(F)(F)F)cc(Nc3cccc4[nH]ncc34)c12 [Compound 116]?
A: MIC ([4]; MRSA clinical strain FPR3757, Mueller-Hinton broth, CLSI guidelines, complete inhibition of observable growth): 2 µg/mL (≈ 4.85 µM); MIC [4, 19]: 1 to 2 µg/mL (≈ 2.43 to 4.85 µM)
